# Experimental data reported in publication PMC10179080, “In Vivo and In Vitro Characterization of Close Analogs of Compound KA-11, a New Antiseizure Drug Candidate” (International Journal of Molecular Sciences, 2023).
# What was measured:
# [1] = test system: seizure susceptibility in mice; assay: Timed ivPTZ seizure threshold test; type: in vivo
# Experimental: The experiments were conducted on adult male albino Swiss mice weighing 22–26 g. The animals were kept in colony cages under standardized laboratory conditions: natural light–dark cycle 12/12 h, temperature 20–24 °C, air humidity 45–65% and free access to tap water and food (chow pellets). After 7 days of adaptation to laboratory conditions, the animals were randomly assigned to experimental groups consisting of 8 mice. The experimental procedures described herein were approved by the Local Ethics Committee in Lublin, Poland (approval numbers: 71/2020 and 13/2021), and were conducted in accordance with EU Directive 2010/63/EU for animal experiments. All efforts were made to minimize animal suffering and to use only the number of animals necessary to produce reliable scientific data according to the 3Rs rule.
# The timed ivPTZ seizure threshold test was carried out according to the method described by Socała et al.. KA-228 and KA-232 were suspended in a 1% solution of Tween 80 and administered i.p. 30 min before the test. In the experiment with KA-232, two separate control groups were used because the effects of KA-232 at a dose of 50 and 100 mg/kg were determined on different days.
# The ED50 or TD50 values for tested substances in the acute animal models of seizures were calculated using the computer log-probit analysis. Subsequently, the ED50 and TD50 values (±SEM) were statistically analyzed using one-way analysis of variance (ANOVA) followed by the post hoc Dunnett’s test for multiple comparisons. Differences among values were considered statistically significant if p < 0.05. GraphPad Prism version 8 for Windows (GraphPad Software, San Diego, CA, USA) was used as a statistical software program. The results obtained from the acute ivPTZ test and grip strength test were evaluated by a Student’s t test. Fisher’s exact probability test was used to analyze protection from tonic forelimb and hindlimb extension in the ivPTZ test.
# Figure 7 Effects of KA-11, KA-228 and KA-232 on the threshold for the first myoclonic twitch (A), generalized clonus (B) and forelimb tonus (C) in the ivPTZ test in mice. KA-228 and KA-232 were administered i.p., 30 min before seizure induction. Control animals received vehicle. Data are presented as means ± SD (mg/kg PTZ; n = 9–14 animals; the n value varies between groups because some animals were excluded from the study due to unsuccessful catheterization of the vein). The statistical significance for KA-228 and KA-232 was evaluated by a Student’s t test. Data for KA-11 were used from Socała et al. and re-analyzed using one-way ANOVA followed by Dunnett’s post hoc test. * p < 0.05, ** p < 0.01, *** p < 0.001, **** p < 0.0001 vs. the vehicle-treated group (GraphPad Prism 8).
# [2] = test system: neuromuscular strength in mice; assay: Grip strength test; type: in vivo
# Experimental: The experiments were conducted on adult male albino Swiss mice weighing 22–26 g. The animals were kept in colony cages under standardized laboratory conditions: natural light–dark cycle 12/12 h, temperature 20–24 °C, air humidity 45–65% and free access to tap water and food (chow pellets). After 7 days of adaptation to laboratory conditions, the animals were randomly assigned to experimental groups consisting of 8 mice. The experimental procedures described herein were approved by the Local Ethics Committee in Lublin, Poland (approval numbers: 71/2020 and 13/2021), and were conducted in accordance with EU Directive 2010/63/EU for animal experiments. All efforts were made to minimize animal suffering and to use only the number of animals necessary to produce reliable scientific data according to the 3Rs rule. The grip strength test was carried out according to the methodology described by Socała et al.. Neuromuscular strength was measured just before the ivPTZ seizure threshold test to limit the number of animals used. The ED50 or TD50 values for tested substances in the acute animal models of seizures were calculated using the computer log-probit analysis. Subsequently, the ED50 and TD50 values (±SEM) were statistically analyzed using one-way analysis of variance (ANOVA) followed by the post hoc Dunnett’s test for multiple comparisons. Differences among values were considered statistically significant if p < 0.05. GraphPad Prism version 8 for Windows (GraphPad Software, San Diego, CA, USA) was used as a statistical software program. The results obtained from the acute ivPTZ test and grip strength test were evaluated by a Student’s t test. Fisher’s exact probability test was used to analyze protection from tonic forelimb and hindlimb extension in the ivPTZ test. Figure 8 Effects of KA-228 and KA-232 on neuromuscular strength in mice. KA-228 and KA-232 were administered i.p., 30 min before the test. Control animals received vehicle. […] The statistical significance was evaluated using the Student’s t test: * p < 0.05 vs. the vehicle-treated group (GraphPad Prism 8).
# [3] = test system: Calcium Cav1.2 channels (diltiazem site, antagonist radioligand); assay: Radioligand binding, Cav1.2 diltiazem site; design: species or system rat
# Experimental: Dysfunction of both sodium and calcium ion channels is known to be one of the crucial reasons behind the pathogenesis of seizures. Consequently, these ion channels are molecular targets for several clinically important ASDs such as lacosamide, lamotrigine, carbamazepine, oxcarbazepine and compounds currently under preclinical and clinical studies. Thus, for KA-228 and KA-232, we tested herein their binding profile toward the aforementioned ion channels at concentrations of 10 and 100 µM (Table 3). […] Apart from in vitro studies focused on explaining the mechanism of action, KA-232 was additionally tested for its interaction with the potassium channel (hERG) which is recognized as one of the most important ‘off-targets’ responsible for harmful arrhythmogenic activity. Thus, the interaction of potential drug candidates with hERG must be excluded at an early stage of development.
# Binding studies were carried out commercially in Eurofins Laboratories (Poitiers, France or New Taipei City, Taiwan).
# [4] = molecular target: GABAA (α1,β2,γ2) (agonist radioligand) (Homo sapiens, UniProt P14867+P47870); assay: Radioligand binding, GABAA
# GABAA (α1,β2,γ2) (agonist radioligand), sequence (P14867 28-456): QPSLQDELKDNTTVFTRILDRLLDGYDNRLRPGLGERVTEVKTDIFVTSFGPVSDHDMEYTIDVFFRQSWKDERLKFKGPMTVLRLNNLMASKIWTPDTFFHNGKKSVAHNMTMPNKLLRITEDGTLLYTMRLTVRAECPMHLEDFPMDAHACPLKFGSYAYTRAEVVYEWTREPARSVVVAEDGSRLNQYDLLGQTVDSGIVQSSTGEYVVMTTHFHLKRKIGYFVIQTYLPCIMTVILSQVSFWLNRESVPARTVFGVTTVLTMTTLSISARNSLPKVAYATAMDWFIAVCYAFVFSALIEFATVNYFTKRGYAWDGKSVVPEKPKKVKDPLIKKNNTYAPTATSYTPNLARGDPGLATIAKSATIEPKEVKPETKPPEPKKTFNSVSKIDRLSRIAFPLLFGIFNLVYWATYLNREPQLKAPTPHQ
# GABAA (α1,β2,γ2) (agonist radioligand), sequence (P47870 25-512 limits assumed): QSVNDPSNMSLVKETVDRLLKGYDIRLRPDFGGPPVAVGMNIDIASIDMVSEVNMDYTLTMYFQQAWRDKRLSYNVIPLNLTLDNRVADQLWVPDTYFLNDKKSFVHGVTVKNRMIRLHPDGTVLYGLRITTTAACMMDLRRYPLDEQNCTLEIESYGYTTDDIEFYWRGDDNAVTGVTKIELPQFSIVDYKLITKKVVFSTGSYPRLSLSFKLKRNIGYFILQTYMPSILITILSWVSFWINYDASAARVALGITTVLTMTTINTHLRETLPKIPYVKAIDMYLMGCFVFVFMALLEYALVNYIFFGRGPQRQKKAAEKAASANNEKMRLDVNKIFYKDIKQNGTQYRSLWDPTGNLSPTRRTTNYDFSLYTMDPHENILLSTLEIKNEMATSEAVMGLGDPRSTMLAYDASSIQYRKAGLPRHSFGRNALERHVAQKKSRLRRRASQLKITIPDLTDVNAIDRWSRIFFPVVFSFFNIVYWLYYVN
# GABAA (α1,β2,γ2) (agonist radioligand), sequence (P18507 40-475 partner): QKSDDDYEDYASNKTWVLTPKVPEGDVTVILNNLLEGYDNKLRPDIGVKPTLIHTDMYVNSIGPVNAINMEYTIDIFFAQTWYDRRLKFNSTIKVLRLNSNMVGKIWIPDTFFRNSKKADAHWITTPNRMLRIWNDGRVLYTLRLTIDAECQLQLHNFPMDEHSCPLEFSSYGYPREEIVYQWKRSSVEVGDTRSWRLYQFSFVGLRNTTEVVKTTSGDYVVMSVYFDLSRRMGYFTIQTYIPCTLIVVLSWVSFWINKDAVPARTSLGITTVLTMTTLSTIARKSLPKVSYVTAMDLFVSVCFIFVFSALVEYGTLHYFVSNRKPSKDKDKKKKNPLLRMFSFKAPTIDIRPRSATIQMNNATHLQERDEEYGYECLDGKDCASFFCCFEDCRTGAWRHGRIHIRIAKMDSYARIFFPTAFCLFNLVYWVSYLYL
# [5] = molecular target: T1, CYP3A4 (Homo sapiens, UniProt P08684); assay: CYP3A4 P450-Glo assay; type: in vitro ADME; conditions: 10 µM
# T1 construct: purchased Promega, Madison, WI, USA
# T1 sequence (P08684 whole entry): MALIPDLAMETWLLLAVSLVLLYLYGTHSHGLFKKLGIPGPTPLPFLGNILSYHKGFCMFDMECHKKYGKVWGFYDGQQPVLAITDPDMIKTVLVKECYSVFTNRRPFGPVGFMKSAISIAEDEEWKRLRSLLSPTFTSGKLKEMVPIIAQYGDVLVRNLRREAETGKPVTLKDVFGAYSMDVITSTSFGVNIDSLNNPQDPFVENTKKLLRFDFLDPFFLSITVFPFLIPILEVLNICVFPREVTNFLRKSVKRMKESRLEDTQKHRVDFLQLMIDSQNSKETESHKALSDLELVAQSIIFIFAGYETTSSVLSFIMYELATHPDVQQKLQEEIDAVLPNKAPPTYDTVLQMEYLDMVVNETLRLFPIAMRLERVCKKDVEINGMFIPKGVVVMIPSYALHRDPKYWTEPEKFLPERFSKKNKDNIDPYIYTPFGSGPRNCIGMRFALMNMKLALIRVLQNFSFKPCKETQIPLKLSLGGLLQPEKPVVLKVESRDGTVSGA
# Source text: The assays and protocols used for evaluating the KA-232 ADME-Tox parameters were similar to those described previously for compound KA-11 [6].
# Figure 9 The effect of KA-232 and the reference drug ketoconazole (KE) on CYP3A4 activity (A). The effect of KA-232 and the reference drug quinidine (QD) on CYP2D6 activity (B). The effect of KA-232 and the reference cytostatic drug doxorubicin (DX) on the HepG2 cell line (C) and the SH-SY5Y cell line (D) viability. Statistical significance (* p < 0.05, **** p < 0.0001) was analyzed by Graph Pad Prism 8 software using one-way ANOVA and Bonferroni’s Multiple Comparison Post Test.
# [6] = 50 mg/kg i.p., 30 min before ivPTZ
smiles,measurement,setting,value
"CC(C(=O)N1CCN(c2cccc(C(F)(F)F)c2)CC1)N1C(=O)CC(N(C)C)C1=O.Cl (centres unmarked) [KA-232, 3-(Dimethylamino)-1-(1-oxo-1-(4-(3-(trifluoromethyl)phenyl)piperazin-1-yl)propan-2-yl)pyrrolidine-2,5-dione hydrochloride]",effect on threshold for forelimb tonus,[1]; [6],did not significantly affect
same,effect on threshold for generalized clonus,[1]; [6],did not significantly affect
same,effect on threshold for the first myoclonic twitch,[1]; [6],did not significantly affect
same,mice in which hindlimb tonus did not occur,"[1]; 50 mg/kg i.p., p < 0.01 vs. control",5 out of 9
same,effect on threshold for clonic seizures,"[1]; 100 mg/kg i.p., p < 0.0001",slightly raised
same,effect on threshold for myoclonic seizures,"[1]; 100 mg/kg i.p., p < 0.001",slightly raised
same,mice in which forelimb tonus was completely abolished,"[1]; 100 mg/kg i.p., p < 0.01 vs. control",7 out of 11
same,effect on neuromuscular strength (grip strength),"[2]; 50 mg/kg i.p., 30 min before test",did not produce any significant effects
same,effect on neuromuscular strength (grip strength),"[2]; 100 mg/kg i.p., p < 0.05",slightly decreased
same,% Inhibition of Control Specific Binding,[3]; 10 µM,−1.8%
same,% Inhibition of Control Specific Binding,[3]; 100 µM,17.5%
same,% Inhibition of Control Specific Binding,[4]; 10 µM,did not interact
same,inhibition at 10 µM,[4]; read-out: % Inhibition of Control Specific Binding,-6.7%
same,CYP3A4 activity (% of control ± SD),[5],86.77 ± 5.71 % of control
